Assay results: US5756462A, “Pore forming peptides from Geolycosa riogrande” (priority 1996, dated 1998)
“Also recorded” adds a separate entry of the source.

What was measured:
Assay type in all cases: cell-based
HL-60 cells [1] = assay: Mobilization of intracellular Ca2+ after pertussis toxin pretreatment; conditions: pretreatment 20 hrs with 100 ng/ml pertussis toxin
Procedure: Increases in [Ca^2+ ]i arising from the mobilization of intracellular Ca^2+ were inhibited by pretreatment for 20 hrs with 100 ng/ml pertussis toxin (PTx).

[2] = test system: HL-60 cells differentiated with dibutryl cAMP; assay: Mobilization of intracellular Ca2+ in fura-2 loaded differentiated HL-60 cells; conditions: differentiated HL-60 cells loaded with fura-2
Procedure: The three peptides of the present invention isolated from the venom of the spider Geolycosa riogrande, designated Geolycosa 17, 15a and 15b, contain linear sequences of 25 (Geolycosa 17) or 27 (Geolycosa 15a and 15b) amino acids, lack cysteine, and are enriched in lysine. […] When tested at concentrations of 0.5 to 2 μM, all three peptides caused rapid and transient increases in [Ca^2+ ]i that persisted in the absence of extracellular Ca^2+ but were blocked when cellular stores of Ca^2+ were depleted by pretreatment with ionomycin.

HL-60 cells [3] = test system: HL-60 cells
Procedure: Uke the effect of many other pore formers, the effects of these peptides on EB uptake were augmented when the total extracellular divalent cation concentration was reduced to 0.1 mM and inhibited when extracellular Mg^2+ was increased from 1 to 5 mM.
The ability of Geolycosa 17 to form pores in membranes was tested in T3 fibroblasts, parathyroid cells, and differentiated and undifferentiated HL60 cells. Pore formation was assessed by measuring the permeability of the cells to ethidium bromide (EB, MW 394). Concentrations of Geolycosa 17 greater than 7.5 μM increased EB uptake in all cells tested.

Compound	effect of PTx pretreatment on mobilization of intracellular Ca2+ (HL-60 cells [1])	mobilization of intracellular Ca2+ [2]	EB uptake / pore formation at concentrations effective in mobilizing intracellular Ca2+ (HL-60 cells [3])	permeabilization of cells indexed by uptake of ethidium bromide (EB) (HL-60 cells [3])	rank order of potency for causing permeabilization of HL-60 cells (HL-60 cells [3])	EC50 (HL-60 cells [3]; EB uptake, read-out: EC50 for causing pore formation)	potency relative to mastoparan (HL-60 cells [3])	effect of PTx on pore formation (HL-60 cells [3]; pertussis toxin pretreatment)	EB uptake at slightly higher concentrations than those mobilizing Ca2+ (HL-60 cells [3])	potency relative to Geolycosa 15a and Geolycosa 17 (HL-60 cells [3])
Nc1ncnc2c1ncn2[C@@H]1O[C@H](COP(=O)(O)OP(=O)(O)OP(=O)(O)O)[C@@H](O)[C@H]1O [ATP, reference compound]	blocked									
CC[C@H](C)[C@H](NC(=O)CN)C(=O)NCC(=O)N[C@@H](C)C(=O)N[C@H](C(=O)N[C@@H](CC(C)C)C(=O)N[C@@H](CCCCN)C(=O)N[C@H](C(=O)N[C@@H](CC(C)C)C(=O)N[C@H](C(=O)N[C@H](C(=O)NCC(=O)N[C@@H](CC(C)C)C(=O)N1CCC[C@H]1C(=O)N[C@@H](C)C(=O)N[C@@H](CC(C)C)C(=O)N[C@H](C(=O)N[C@@H](CO)C(=O)N[C@@H](Cc1c[nH]c2ccccc12)C(=O)N[C@H](C(=O)N[C@@H](CCCCN)C(=O)N[C@@H](CCCNC(=N)N)C(=O)N[C@@H](CCCCN)C(=O)N[C@@H](CCCNC(=N)N)C(=O)N[C@@H](CCC(N)=O)C(=O)N[C@@H](CCC(N)=O)C(N)=O)[C@@H](C)CC)[C@@H](C)CC)[C@@H](C)O)[C@@H](C)O)C(C)C)C(C)C [melittin, reference compound]		caused the mobilization of intracellular Ca^2+	caused significant pore formation	permeabilized HL-60 cells	melittin>Geolycosa 15b>Geolycosa 17=Geolycosa 15a>mastoparan	~250 nM				
Geolycosa 15a (KIKWLKAMKSIAKFIAKKQMKKHLGGE)	blocks	mobilize intracellular Ca^2+	even less prone to cause increases in EB uptake	permeabilized cells	melittin>Geolycosa 15b>Geolycosa 17=Geolycosa 15a>mastoparan		about twice as potent	without effect		
Geolycosa 15b (KIKWFKTMKSIAKFIAKEQMKKHLKGE)	failed to affect	mobilize intracellular Ca^2+; also recorded: caused the mobilization of intracellular Ca^2+	little uptake of EB	permeabilized cells	melittin>Geolycosa 15b>Geolycosa 17=Geolycosa 15a>mastoparan				a large uptake of EB	about twice as potent
